From US8119681B2, “2-[1-phenyl-5-hydroxy or methoxy-4alpha-methyl-hexahydrocyclopenta [ƒ]indazole-5-YL]ethyl phenyl derivatives as glucocorticoid receptor ligands” (Merck Sharp & Dohme Corp., priority 2006, dated 2012)

Target: T1, human GR (Homo sapiens, UniProt P04150)
T1 sequence (P04150 1-777): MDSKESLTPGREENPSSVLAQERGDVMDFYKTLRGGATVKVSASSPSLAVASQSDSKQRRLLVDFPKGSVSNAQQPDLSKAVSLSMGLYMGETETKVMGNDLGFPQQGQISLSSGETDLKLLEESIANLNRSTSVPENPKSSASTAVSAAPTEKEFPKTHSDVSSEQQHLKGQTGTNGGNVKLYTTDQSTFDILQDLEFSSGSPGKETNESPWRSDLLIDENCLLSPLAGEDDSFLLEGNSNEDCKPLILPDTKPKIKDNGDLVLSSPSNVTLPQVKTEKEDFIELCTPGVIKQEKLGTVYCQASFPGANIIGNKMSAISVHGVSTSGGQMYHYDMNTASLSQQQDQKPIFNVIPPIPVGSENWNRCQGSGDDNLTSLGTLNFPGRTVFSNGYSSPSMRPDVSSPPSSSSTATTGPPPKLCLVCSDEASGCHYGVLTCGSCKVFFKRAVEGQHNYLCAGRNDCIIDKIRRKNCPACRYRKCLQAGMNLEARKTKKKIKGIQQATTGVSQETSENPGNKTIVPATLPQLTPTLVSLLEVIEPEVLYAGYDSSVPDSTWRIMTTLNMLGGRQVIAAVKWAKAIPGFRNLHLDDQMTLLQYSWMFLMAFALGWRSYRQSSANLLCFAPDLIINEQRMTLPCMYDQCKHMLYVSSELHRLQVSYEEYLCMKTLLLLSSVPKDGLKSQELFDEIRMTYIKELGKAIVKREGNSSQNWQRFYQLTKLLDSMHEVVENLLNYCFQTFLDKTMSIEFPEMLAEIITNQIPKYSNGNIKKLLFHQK
Assay: Transrepression Assay (GITAR), TNFα-β-lactamase reporter gene in U937 cells
Assay type: cell-based
Parameters: U937 cells contain an endogenous glucocorticoid receptor (GR); endogenous in cells; host or cells: U937 cells stably transfected with the TNF-α promoter/β-lactamase reporter only
Conditions: U-937; 100 nM dexamethasone = 100% activity; read-out: maximal activity in the transrepression assay
How it was run: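 Reporter readout used CCF2-AM loading for 70–90 min at room temperature after overnight (~18 h, 37 °C) PMA (5 ng/ml final) and LPS (100 ng/ml final) stimulation of compound-treated (30–45 min) TNFα-β-lactamase U937 cells expressing native GR. Activity was normalised to 100 nM dexamethasone repression.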

| SMILES | Emax [%] |
| --- | --- |
| C[C@]12Cc3cnn(-c4ccc(F)cc4)c3C=C1CC[C@@]2(O)CCc1cccc(F)c1CNS(=O)(=O)CS(C)(=O)=O [Example 97, N-(2-fluoro-6-{2-[(4αS,5R)-1-(4-fluorophenyl)-5-hydroxy-4α-methyl-1,4,4α,5,6,7-hexahydrocyclopenta[f]indazol-5-yl]ethyl}benzyl)-1-(methylsulfonyl)methanesulfonamide] | 5 to 100 |
| C[C@]12Cc3cnn(-c4ccc(F)cc4)c3C=C1CC[C@@]2(O)CCc1cccc(F)c1CNS(C)(=O)=O [Example 98, N-(2-fluoro-6-{2-[(4αS,5R)-1-(4-fluorophenyl)-5-hydroxy-4α-methyl-1,4,4α,5,6,7-hexahydrocyclopenta[f]indazol-5-yl]ethyl}benzyl)methanesulfonamide] | 5 to 100 |
| C[C@H](NS(=O)(=O)CC(F)(F)F)c1c(F)cccc1CC[C@]1(O)CCC2=Cc3c(cnn3-c3ccc(F)cc3)C[C@@]21C [Example 99, 2,2,2-trifluoro-N-[(1S)-1-(2-fluoro-6-{2-[(4αS,5R)-1-(4-fluorophenyl)-5-hydroxy-4α-methyl-1,4,4α,5,6,7-hexahydrocyclopenta[f]indazol-5-yl]ethyl}phenyl)ethyl]ethanesulfonamide] | 5 to 100 |
| C[C@]12Cc3cnn(-c4ccc(F)cc4)c3C=C1CC[C@@]2(O)CCc1cccc(F)c1C1(NS(=O)(=O)C2CC2)CC1 [Example 100, N-[1-(2-fluoro-6-{2-[(4αS,5R)-1-(4-fluorophenyl)-5-hydroxy-4α-methyl-1,4,4α,5,6,7-hexahydrocyclopenta[f]indazol-5-yl]ethyl}phenyl)cyclopropyl]cyclopropanesulfonamide] | 5 to 100 |
| C[C@]12Cc3cnn(-c4ccc(F)cc4)c3C=C1CC[C@@]2(O)CCc1cccc(F)c1[C@@H](NS(=O)(=O)CC(F)(F)F)C(F)(F)F [Example 101, 2,2,2-trifluoro-N-[(1R)-2,2,2-trifluoro-1-(2-fluoro-6-{2-[(4αS,5R)-1-(4-fluorophenyl)-5-hydroxy-4α-methyl-1,4,4α,5,6,7-hexahydrocyclopenta[f]indazol-5-yl]ethyl}phenyl)ethyl]ethanesulfonamide] | 5 to 100 |

The remaining lines, values ahead:

| Emax [%] | SMILES |
| --- | --- |
| 5 to 100 | C[C@]12Cc3cnn(-c4ccc(F)cc4)c3C=C1CC[C@@]2(O)CCc1cccc(F)c1C1(NS(=O)(=O)CC(F)(F)F)CC1 [Example 102, 2,2,2-trifluoro-N-[1-(2-fluoro-6-{2-[(4αS,5R)-1-(4-fluorophenyl)-5-hydroxy-4α-methyl-1,4,4α,5,6,7-hexahydrocyclopenta[f]indazol-5-102yl]ethyl}phenyl)cyclopropyl]ethanesulfonamide] |
| 5 to 100 | C[C@]12Cc3cnn(-c4ccc(F)cc4)c3C=C1CC[C@@]2(O)CCc1ccccc1CNCC1CC1 [Example 103, (4αS,5R)-5-[2-(2-{[(cyclopropylmethyl}amino]methyl}phenyl)ethyl]-1-(4-fluorophenyl)-4α-methyl-1,4,4α,5,6,7-hexahydrocyclopenta[f]indazol-5-ol] |
| 5 to 100 | C[C@]12Cc3cnn(-c4ccc(F)cc4)c3C=C1CC[C@@]2(O)CCc1ccccc1CNCC(F)(F)F [Example 104, (4αS,5R)-1-(4-fluorophenyl)-4α-methyl-5-[2-[2-{[(2,2,2-trifluoroethyl)amino]methyl}phenyl)ethyl]-1,4,4α,5,6,7-hexahydrocyclopenta[f]indazol-5-ol] |
| 5 to 100 | CC(=O)NCc1ccccc1CC[C@]1(O)CCC2=Cc3c(cnn3-c3ccc(F)cc3)C[C@@]21C [Example 105, N-(2-{2-[(4αS,5R)-1-(4-fluorophenyl)-5-hydroxy-4α-methyl-1,4,4α,5,6,7-hexahydrocyclopenta[f]indazol-5-yl]ethyl}benzyl)acetamide] |
| 5 to 100 | CCNC(=O)Cc1ccccc1CC[C@]1(O)CCC2=Cc3c(cnn3-c3ccc(F)cc3)C[C@@]21C [Example 106, N-ethyl-2-(2-{2-[(4αS,5R)-1-(4-fluorophenyl)-5-hydroxy-4α-methyl-1,4,4α,5,6,7-hexahydrocyclopenta[f]indazol-5-yl]ethyl}phenyl)acetamide] |
